# Source: the supplement of paper PMC10307832
# Experiments:
# Test in all cases: relative viability (nuclei count vs DMSO), 5 days (fraction); higher = more cells survive
# BEN = tested on: BEN
# How it was run: (§1)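 Dosing by pin tool came one day after lung cancer cell lines were seeded in 1536-well plates, using either one drug or a fixed anchor-drug dose plus five library-drug doses (not always all listed) in √10 steps. After 5 days, nuclei were counted on 4× images. Relative viability is treated-well nuclei count divided by vehicle-well nuclei count, and values are medians of duplicate plates.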
# CAL-12T = tested on: CAL-12T
# How it was run: as §1
# EKVX = tested on: EKVX
# How it was run: as §1
# HCC-15 = tested on: HCC-15
# How it was run: as §1
# HCC-44 = tested on: HCC-44
# How it was run: as §1
# LCLC-103H = tested on: LCLC-103H
# How it was run: as §1
# LOU-NH91 = tested on: LOU-NH91
# How it was run: as §1
# NCI-H1355 = tested on: NCI-H1355
# How it was run: as §1
# NCI-H1395 = tested on: NCI-H1395
# How it was run: as §1
# NCI-H1437 = tested on: NCI-H1437
# How it was run: as §1
# NCI-H1563 = tested on: NCI-H1563
# How it was run: as §1
# NCI-H1650 = tested on: NCI-H1650
# How it was run: as §1
# NCI-H1651 = tested on: NCI-H1651
# How it was run: as §1
# NCI-H1734 = tested on: NCI-H1734
# How it was run: as §1
# NCI-H1755 = tested on: NCI-H1755
# How it was run: as §1
# NCI-H1975 = tested on: NCI-H1975
# How it was run: as §1
# NCI-H2023 = tested on: NCI-H2023
# How it was run: as §1
# NCI-H2085 = tested on: NCI-H2085
# How it was run: as §1
# NCI-H2342 = tested on: NCI-H2342
# How it was run: as §1
# NCI-H358 = tested on: NCI-H358
# How it was run: as §1
# NCI-H441 = tested on: NCI-H441
# How it was run: as §1
# NCI-H460 = tested on: NCI-H460
# How it was run: as §1
# NCI-H838 = tested on: NCI-H838
# How it was run: as §1
structure (smiles),measurement,setting,value
COc1cc(N2CCC(C(N)=O)CC2)ccc1Nc1nc(N)c(Cl)c(Nc2ccccc2S(=O)(=O)C(C)C)n1 [HG-5-88-01] + CCNC(=O)c1noc(-c2cc(C(C)C)c(O)cc2O)c1-c1ccc(CN2CCOCC2)cc1 [Luminespib] (partner 0.01 µM),relative viability,BEN; first compound 0.04 µM,0.337
same,relative viability,BEN; first compound 0.1265 µM,0.412
same,relative viability,BEN; first compound 0.4 µM,0.43
same,relative viability,BEN; first compound 1.265 µM,0.465
same,relative viability,BEN; first compound 4 µM,0.234
same,relative viability,CAL-12T; first compound 0.04 µM,0.583
same,relative viability,CAL-12T; first compound 0.1265 µM,1.02
same,relative viability,CAL-12T; first compound 0.4 µM,0.36
same,relative viability,CAL-12T; first compound 1.265 µM,0.392
same,relative viability,CAL-12T; first compound 4 µM,0.255
same,relative viability,EKVX; first compound 0.04 µM,0.892
same,relative viability,EKVX; first compound 0.1265 µM,0.838
same,relative viability,EKVX; first compound 0.4 µM,0.752
same,relative viability,EKVX; first compound 4 µM,0.838
same,relative viability,HCC-15; first compound 0.04 µM,0.386
same,relative viability,HCC-15; first compound 0.1265 µM,0.2
same,relative viability,HCC-15; first compound 0.4 µM,0.553
same,relative viability,HCC-15; first compound 1.265 µM,0.468
same,relative viability,HCC-15; first compound 4 µM,0.41
same,relative viability,HCC-44; first compound 0.04 µM,1.01
same,relative viability,HCC-44; first compound 0.1265 µM,0.988
same,relative viability,HCC-44; first compound 0.4 µM,0.915
same,relative viability,HCC-44; first compound 1.265 µM,0.366
same,relative viability,HCC-44; first compound 4 µM,0.783
same,relative viability,LCLC-103H; first compound 0.04 µM,1.08
same,relative viability,LCLC-103H; first compound 0.1265 µM,1.01
same,relative viability,LCLC-103H; first compound 0.4 µM,0.888
same,relative viability,LCLC-103H; first compound 1.265 µM,0.894
same,relative viability,LCLC-103H; first compound 4 µM,0.879
same,relative viability,LOU-NH91; first compound 0.04 µM,0.337
same,relative viability,LOU-NH91; first compound 0.1265 µM,0.338
same,relative viability,LOU-NH91; first compound 0.4 µM,0.331
same,relative viability,LOU-NH91; first compound 1.265 µM,0.35
same,relative viability,LOU-NH91; first compound 4 µM,0.356
same,relative viability,NCI-H1355; first compound 0.04 µM,0.663
same,relative viability,NCI-H1355; first compound 0.1265 µM,0.753
same,relative viability,NCI-H1355; first compound 0.4 µM,0.703
same,relative viability,NCI-H1355; first compound 1.265 µM,0.617
same,relative viability,NCI-H1355; first compound 4 µM,0.809
same,relative viability,NCI-H1395; first compound 0.04 µM,0.723
same,relative viability,NCI-H1395; first compound 0.1265 µM,0.611
same,relative viability,NCI-H1395; first compound 0.4 µM,0.669
same,relative viability,NCI-H1395; first compound 1.265 µM,0.532
same,relative viability,NCI-H1395; first compound 4 µM,0.989
same,relative viability,NCI-H1437; first compound 0.04 µM,1.09
same,relative viability,NCI-H1437; first compound 0.1265 µM,1.1
same,relative viability,NCI-H1437; first compound 0.4 µM,1.07
same,relative viability,NCI-H1437; first compound 1.265 µM,0.998
same,relative viability,NCI-H1437; first compound 4 µM,1.23
same,relative viability,NCI-H1563; first compound 0.04 µM,0.542
same,relative viability,NCI-H1563; first compound 0.1265 µM,0.539
same,relative viability,NCI-H1563; first compound 0.4 µM,0.476
same,relative viability,NCI-H1563; first compound 1.265 µM,0.485
same,relative viability,NCI-H1563; first compound 4 µM,0.519
same,relative viability,NCI-H1650; first compound 0.04 µM,0.156
same,relative viability,NCI-H1650; first compound 0.1265 µM,0.184
same,relative viability,NCI-H1650; first compound 0.4 µM,0.172
same,relative viability,NCI-H1650; first compound 1.265 µM,0.197
same,relative viability,NCI-H1650; first compound 4 µM,0.204
same,relative viability,NCI-H1651; first compound 0.04 µM,0.87
same,relative viability,NCI-H1651; first compound 0.1265 µM,0.976
same,relative viability,NCI-H1651; first compound 0.4 µM,1.17
same,relative viability,NCI-H1651; first compound 1.265 µM,0.771
same,relative viability,NCI-H1651; first compound 4 µM,0.934
same,relative viability,NCI-H1734; first compound 0.04 µM,0.214
same,relative viability,NCI-H1734; first compound 0.1265 µM,0.166
same,relative viability,NCI-H1734; first compound 0.4 µM,0.171
same,relative viability,NCI-H1734; first compound 1.265 µM,0.19
same,relative viability,NCI-H1734; first compound 4 µM,0.171
same,relative viability,NCI-H1755; first compound 0.04 µM,0.401
same,relative viability,NCI-H1755; first compound 0.1265 µM,0.32
same,relative viability,NCI-H1755; first compound 0.4 µM,0.427
same,relative viability,NCI-H1755; first compound 1.265 µM,0.385
same,relative viability,NCI-H1755; first compound 4 µM,0.599
same,relative viability,NCI-H1975; first compound 0.04 µM,0.34
same,relative viability,NCI-H1975; first compound 0.1265 µM,0.215
same,relative viability,NCI-H1975; first compound 0.4 µM,0.35
same,relative viability,NCI-H1975; first compound 1.265 µM,0.171
same,relative viability,NCI-H1975; first compound 4 µM,0.174
same,relative viability,NCI-H2023; first compound 0.04 µM,0.397
same,relative viability,NCI-H2023; first compound 0.1265 µM,0.673
same,relative viability,NCI-H2023; first compound 0.4 µM,0.671
same,relative viability,NCI-H2023; first compound 1.265 µM,0.438
same,relative viability,NCI-H2023; first compound 4 µM,0.267
same,relative viability,NCI-H2085; first compound 0.04 µM,0.405
same,relative viability,NCI-H2085; first compound 0.1265 µM,0.453
same,relative viability,NCI-H2085; first compound 0.4 µM,0.407
same,relative viability,NCI-H2085; first compound 1.265 µM,0.434
same,relative viability,NCI-H2085; first compound 4 µM,0.464
same,relative viability,NCI-H2342; first compound 0.04 µM,0.672
same,relative viability,NCI-H2342; first compound 0.1265 µM,0.739
same,relative viability,NCI-H2342; first compound 0.4 µM,0.688
same,relative viability,NCI-H2342; first compound 1.265 µM,0.701
same,relative viability,NCI-H2342; first compound 4 µM,0.845
same,relative viability,NCI-H358; first compound 0.04 µM,0.335
same,relative viability,NCI-H358; first compound 0.1265 µM,0.256
same,relative viability,NCI-H358; first compound 0.4 µM,0.422
same,relative viability,NCI-H358; first compound 1.265 µM,0.099
same,relative viability,NCI-H358; first compound 4 µM,0.148
same,relative viability,NCI-H441; first compound 0.04 µM,0.284
same,relative viability,NCI-H441; first compound 0.1265 µM,0.292
same,relative viability,NCI-H441; first compound 0.4 µM,0.476
same,relative viability,NCI-H441; first compound 1.265 µM,0.248
same,relative viability,NCI-H441; first compound 4 µM,0.297
same,relative viability,NCI-H460; first compound 0.04 µM,0.0373
same,relative viability,NCI-H460; first compound 0.1265 µM,0.0308
same,relative viability,NCI-H460; first compound 0.4 µM,0.0242
same,relative viability,NCI-H460; first compound 1.265 µM,0.0363
same,relative viability,NCI-H460; first compound 4 µM,0.0375
same,relative viability,NCI-H838; first compound 0.04 µM,0.322
same,relative viability,NCI-H838; first compound 0.1265 µM,0.288
same,relative viability,NCI-H838; first compound 0.4 µM,0.212
same,relative viability,NCI-H838; first compound 1.265 µM,0.276
same,relative viability,NCI-H838; first compound 4 µM,0.205
